Measured values published in PubChem BioAssay AID1919009 (Molecular Pharmacology Branch, DTP, NCI, 2023).
Blank lines part the entries; values can stand above or below the compound they belong to.

System: K24384-001-R-PDC complex spheroid growth
Assay: Anticancer human tumor K24384-001-R-PDC patient-derived pancreatic adenocarcinoma cell line growth inhibition [AhR]
Details: for IC50: curve of first compound; for viability, T/C: stronger effect = lower value
Method in brief: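 Complex tumor spheroids co-cultured with HUVEC and human MSC stroma; AhR antagonists tested in combination with standard-of-care and investigational agents. Top concentration at or near clinical Cmax (else 10 microM), half-log dilutions; growth expressed as percent test/control.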

[1] = second compound 0.1 µM, first compound 0.0316 µM
[2] = second compound 0.1 µM, first compound 0.1 µM
[3] = second compound 0.1 µM, first compound 0.316 µM
[4] = second compound 0.1 µM, first compound 1 µM
[5] = second compound 0.1 µM, first compound 3.16 µM
[6] = second compound 0.1 µM, first compound 10 µM
[7] = second compound 0.316 µM, first compound 0.0316 µM
[8] = second compound 0.316 µM, first compound 0.1 µM
[9] = second compound 0.316 µM, first compound 0.316 µM
[10] = second compound 0.316 µM, first compound 1 µM
[11] = second compound 0.316 µM, first compound 3.16 µM
[12] = second compound 0.316 µM, first compound 10 µM
[13] = second compound 1 µM, first compound 0.0316 µM
[14] = second compound 1 µM, first compound 0.1 µM
[15] = second compound 1 µM, first compound 0.316 µM
[16] = second compound 1 µM, first compound 1 µM
[17] = second compound 1 µM, first compound 3.16 µM
[18] = second compound 1 µM, first compound 10 µM
[19] = second compound 3.16 µM, first compound 0.0316 µM
[20] = second compound 3.16 µM, first compound 0.1 µM
[21] = second compound 3.16 µM, first compound 0.316 µM
[22] = second compound 3.16 µM, first compound 1 µM
[23] = second compound 3.16 µM, first compound 3.16 µM
[24] = second compound 3.16 µM, first compound 10 µM
[25] = second compound 10 µM, first compound 0.0316 µM
[26] = second compound 10 µM, first compound 0.1 µM
[27] = second compound 10 µM, first compound 0.316 µM
[28] = second compound 10 µM, first compound 1 µM
[29] = second compound 10 µM, first compound 3.16 µM
[30] = second compound 10 µM, first compound 10 µM
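For viability, T/C in this document: percent of DMSO vehicle-treated spheroid viability set as 100%.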

SMILES: CC(C)c1c(-c2ccccc2)nc2c(C#N)c[nH]n2c1=O + Cc1ccccc1N=Nc1ccc(NC(=O)c2ccnn2C)c(C)c1
IC50 (second compound 0.1 µM): > 10 µM
IC50 (second compound 0.316 µM): > 10 µM
IC50 (second compound 1 µM): > 10 µM
IC50 (second compound 3.16 µM): > 10 µM
IC50 (second compound 10 µM): > 10 µM
viability, T/C [1]: 114%
viability, T/C [2]: 121%
viability, T/C [3]: 123%
viability, T/C [4]: 108%
viability, T/C [5]: 88.8%
viability, T/C [6]: 86.2%
viability, T/C [7]: 112%
viability, T/C [8]: 124%
viability, T/C [9]: 121%
viability, T/C [10]: 128%
viability, T/C [11]: 104%
viability, T/C [12]: 89.7%
viability, T/C [13]: 117%
viability, T/C [14]: 109%
viability, T/C [15]: 113%
viability, T/C [16]: 103%
viability, T/C [17]: 105%
viability, T/C [18]: 109%
viability, T/C [19]: 98.2%
viability, T/C [20]: 109%
viability, T/C [21]: 124%
viability, T/C [22]: 114%
viability, T/C [23]: 90.8%
viability, T/C [24]: 122%
viability, T/C [25]: 132%
viability, T/C [26]: 141%
viability, T/C [27]: 114%
viability, T/C [28]: 119%
viability, T/C [29]: 126%
viability, T/C [30]: 119%

SMILES: COc1ccc([C@@H](O)c2cc(-c3ncnc4cc(N5CCOCC5)ccc34)c(F)cc2Cl)nn1 + Cc1ccccc1N=Nc1ccc(NC(=O)c2ccnn2C)c(C)c1
IC50 (second compound 0.1 µM): 5.91 µM
IC50 (second compound 0.316 µM): 4.85 µM
IC50 (second compound 1 µM): 3.61 µM
IC50 (second compound 3.16 µM): 2.54 µM
IC50 (second compound 10 µM): 3.68 µM
viability, T/C [1]: 99.7%
viability, T/C [2]: 99%
viability, T/C [3]: 82.2%
viability, T/C [4]: 66.7%
viability, T/C [5]: 62.5%
viability, T/C [6]: 42.1%
viability, T/C [7]: 99.3%
viability, T/C [8]: 90.5%
viability, T/C [9]: 80.4%
viability, T/C [10]: 82%
viability, T/C [11]: 53.8%
viability, T/C [12]: 37.2%
viability, T/C [13]: 96.1%
viability, T/C [14]: 95.7%
viability, T/C [15]: 86.1%
viability, T/C [16]: 70.8%
viability, T/C [17]: 51.9%
viability, T/C [18]: 37.8%
viability, T/C [19]: 99.9%
viability, T/C [20]: 96.6%
viability, T/C [21]: 81%
viability, T/C [22]: 64.2%
viability, T/C [23]: 47.2%
viability, T/C [24]: 34.9%
viability, T/C [25]: 97%
viability, T/C [26]: 103%
viability, T/C [27]: 82.5%
viability, T/C [28]: 78.7%
viability, T/C [29]: 50.9%
viability, T/C [30]: 32.7%

SMILES: O=C(C=Cn1cnc(-c2cc(C(F)(F)F)cc(C(F)(F)F)c2)n1)NNc1cnccn1 + Cc1ccccc1N=Nc1ccc(NC(=O)c2ccnn2C)c(C)c1
IC50 (second compound 0.1 µM): 0.238 µM
IC50 (second compound 0.316 µM): 0.144 µM
IC50 (second compound 1 µM): 0.158 µM
IC50 (second compound 3.16 µM): 0.149 µM
IC50 (second compound 10 µM): 0.132 µM
viability, T/C (second compound 0.1 µM, first compound 0.00949 µM): 101%
viability, T/C (second compound 0.1 µM, first compound 0.03 µM): 104%
viability, T/C (second compound 0.1 µM, first compound 0.0949 µM): 68.2%
viability, T/C (second compound 0.1 µM, first compound 0.3 µM): 47.9%
viability, T/C (second compound 0.1 µM, first compound 0.949 µM): 27.1%
viability, T/C (second compound 0.1 µM, first compound 3 µM): 22.9%
viability, T/C (second compound 0.316 µM, first compound 0.00949 µM): 88%
viability, T/C (second compound 0.316 µM, first compound 0.03 µM): 106%
viability, T/C (second compound 0.316 µM, first compound 0.0949 µM): 62.3%
viability, T/C (second compound 0.316 µM, first compound 0.3 µM): 32.6%
viability, T/C (second compound 0.316 µM, first compound 0.949 µM): 30.2%
viability, T/C (second compound 0.316 µM, first compound 3 µM): 22.1%
viability, T/C (second compound 1 µM, first compound 0.00949 µM): 97.4%
viability, T/C (second compound 1 µM, first compound 0.03 µM): 89%
viability, T/C (second compound 1 µM, first compound 0.0949 µM): 62.3%
viability, T/C (second compound 1 µM, first compound 0.3 µM): 34.2%
viability, T/C (second compound 1 µM, first compound 0.949 µM): 26.5%
viability, T/C (second compound 1 µM, first compound 3 µM): 23%
viability, T/C (second compound 3.16 µM, first compound 0.00949 µM): 76.9%
viability, T/C (second compound 3.16 µM, first compound 0.03 µM): 77.6%
viability, T/C (second compound 3.16 µM, first compound 0.0949 µM): 59.3%
viability, T/C (second compound 3.16 µM, first compound 0.3 µM): 34%
viability, T/C (second compound 3.16 µM, first compound 0.949 µM): 27.9%
viability, T/C (second compound 3.16 µM, first compound 3 µM): 19.7%
viability, T/C (second compound 10 µM, first compound 0.00949 µM): 86.3%
viability, T/C (second compound 10 µM, first compound 0.03 µM): 79.4%
viability, T/C (second compound 10 µM, first compound 0.0949 µM): 57.5%
viability, T/C (second compound 10 µM, first compound 0.3 µM): 31.4%
viability, T/C (second compound 10 µM, first compound 0.949 µM): 32.9%
viability, T/C (second compound 10 µM, first compound 3 µM): 25.8%

Continued, in another order:

IC50 (second compound 0.1 µM): 0.103 µM
IC50 (second compound 0.316 µM): 0.105 µM
IC50 (second compound 1 µM): 0.0948 µM
IC50 (second compound 3.16 µM): 0.0991 µM
IC50 (second compound 10 µM): 0.168 µM
SMILES: CC1COCCN1c1cc(-c2ccnn2C)c2ccnc(-c3ccn[nH]3)c2n1 (stereo not given) + Cc1ccccc1N=Nc1ccc(NC(=O)c2ccnn2C)c(C)c1
viability, T/C (second compound 0.1 µM, first compound 0.00316 µM): 101%
viability, T/C (second compound 0.1 µM, first compound 0.01 µM): 107%
viability, T/C [1]: 82.2%
viability, T/C [2]: 52.3%
viability, T/C [3]: 29.6%
viability, T/C [4]: 28.2%
viability, T/C (second compound 0.316 µM, first compound 0.00316 µM): 114%
viability, T/C (second compound 0.316 µM, first compound 0.01 µM): 120%
viability, T/C [7]: 80.5%
viability, T/C [8]: 54.2%
viability, T/C [9]: 32.5%
viability, T/C [10]: 26.7%
viability, T/C (second compound 1 µM, first compound 0.00316 µM): 103%
viability, T/C (second compound 1 µM, first compound 0.01 µM): 99.5%
viability, T/C [13]: 102%
viability, T/C [14]: 47.5%
viability, T/C [15]: 29.1%
viability, T/C [16]: 28.6%
viability, T/C (second compound 3.16 µM, first compound 0.00316 µM): 101%
viability, T/C (second compound 3.16 µM, first compound 0.01 µM): 92.1%
viability, T/C [19]: 82.1%
viability, T/C [20]: 48.7%
viability, T/C [21]: 33.4%
viability, T/C [22]: 28.5%
viability, T/C (second compound 10 µM, first compound 0.00316 µM): 129%
viability, T/C (second compound 10 µM, first compound 0.01 µM): 128%
viability, T/C [25]: 108%
viability, T/C [26]: 57.1%
viability, T/C [27]: 39.7%
viability, T/C [28]: 42.4%

IC50 (second compound 0.1 µM): 2.1 µM
IC50 (second compound 0.316 µM): 2.36 µM
IC50 (second compound 1 µM): 2.14 µM
IC50 (second compound 3.16 µM): 1.55 µM
IC50 (second compound 10 µM): 2.75 µM
SMILES: CC1COCCN1c1cc(C2(S(C)(=N)=O)CC2)nc(-c2ccnc3[nH]ccc23)n1 (stereo not given) + Cc1ccccc1N=Nc1ccc(NC(=O)c2ccnn2C)c(C)c1
viability, T/C [1]: 102%
viability, T/C [2]: 126%
viability, T/C [3]: 105%
viability, T/C [4]: 70.1%
viability, T/C [5]: 38.7%
viability, T/C [6]: 35.5%
viability, T/C [7]: 111%
viability, T/C [8]: 115%
viability, T/C [9]: 97.2%
viability, T/C [10]: 76.2%
viability, T/C [11]: 39.5%
viability, T/C [12]: 30.9%
viability, T/C [13]: 95.2%
viability, T/C [14]: 106%
viability, T/C [15]: 90.5%
viability, T/C [16]: 71.6%
viability, T/C [17]: 38.8%
viability, T/C [18]: 29.2%
viability, T/C [19]: 76.4%
viability, T/C [20]: 116%
viability, T/C [21]: 95.8%
viability, T/C [22]: 60.4%
viability, T/C [23]: 35.5%
viability, T/C [24]: 27.4%
viability, T/C [25]: 109%
viability, T/C [26]: 97.1%
viability, T/C [27]: 98.5%
viability, T/C [28]: 75.8%
viability, T/C [29]: 45.8%
viability, T/C [30]: 38.2%
